Reference: patent US20220089592A1, “IMIDAZO[1,2-A]PYRIDINYL DERIVATIVES AS IRAK4 INHIBITORS” (priority 2019, published 2022)
Structures can show the parent of a compound that is named as a salt.

Biological target: T1, IRAK4 (Homo sapiens, UniProt Q9NWZ3)
T1 sequence (Q9NWZ3 1-460): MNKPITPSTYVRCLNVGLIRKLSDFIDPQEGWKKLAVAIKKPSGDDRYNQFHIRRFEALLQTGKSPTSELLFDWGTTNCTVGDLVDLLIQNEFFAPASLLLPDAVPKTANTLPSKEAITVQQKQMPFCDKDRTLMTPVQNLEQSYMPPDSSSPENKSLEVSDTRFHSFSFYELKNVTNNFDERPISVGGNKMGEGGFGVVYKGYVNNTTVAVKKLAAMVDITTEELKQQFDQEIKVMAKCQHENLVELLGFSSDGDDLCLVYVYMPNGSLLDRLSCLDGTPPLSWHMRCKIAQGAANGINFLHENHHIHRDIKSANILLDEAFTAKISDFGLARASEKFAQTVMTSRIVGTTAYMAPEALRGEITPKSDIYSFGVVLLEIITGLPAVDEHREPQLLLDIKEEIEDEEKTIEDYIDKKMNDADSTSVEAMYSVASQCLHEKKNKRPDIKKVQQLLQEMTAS
Assay: 2-hour 1 mM ATP IRAK4 Biochemical assay (as above, but with 100 pM IRAK4 and 1 mM ATP)
Conditions: IRAK4 MSD BIOCHEMICAL (1 mM ATP) IC50 (μM), 100 pM IRAK4, 2 hours
Description: The 2-hour 10 μM ATP Biochemical Assay employs a MesoScale Detection (MSD) format.
The activity is quenched with 11 μl of 70 mM EDTA, pH 8.
To detect the phosphorylated biotinylated peptide substrate, 30 μl of the quenched reaction mixture is added to equivalent wells of a 384 well streptavidin coated MesoScale plate (Meso Scale Discovery #L21SA-1). After a 1 hour incubation of the plate for 1 hour at room temperature with gentle mixing, the plate wells are washed 3 times with 50 mM Tris, pH 7.5, 150 mM NaCl, 0.02% Tween-20.
A 25 μl volume of 1:500 anti-P-Threonine Rabbit polyclonal Antibody plus 1:500 Goat-anti-Rabbit Sulfo Tag Antibody (Meso Scale Discovery R32AB-1) in 50 mM Tris, pH 7.5, 150 mM NaCl, 0.02% Tween-20 plus 2% BSA is then added to each well. After a 1-hour incubation of the plate for 1 hour at room temperature with gentle mixing, the plate wells are washed, 3 times with 50 mM Tris, pH 7.5, 150 mM NaCl, 0.02% Tween-20. A 40 μl volume of 2×MSD Read Buffer (Meso Scale Discovery R92TC-1) is added to each well, and the plate is read immediately in an MSD Plate Reader (Meso Scale Discovery).
The 2-hour 1 mM ATP IRAK4 Biochemical assay was performed as described above, but with 100 pM IRAK4 and 1 mM ATP.

| SMILES | IC50 |
| --- | --- |
| CC(C)Oc1nc2nc(C34COC(C)(C3)C4)cn2cc1NC(=O)c1ccn(C(F)F)n1 [Example 498, 1-(difluoromethyl)-N-(7-isopropoxy-2-(1-methyl-2-oxabicyclo[2.1.1]hexan-4-yl)imidazo[1,2-a]pyrimidin-6-yl)-1H-pyrazole-3-carboxamide] | 0.001 µM |
| COc1nc(NC(=O)c2cccc(C(F)F)n2)cn2cc(C34COC(CF)(C3)C4)nc12 [Example 559, 6-(difluoromethyl)-N-(2-(1-(fluoromethyl)-2-oxabicyclo[2.1.1]hexan-4-yl)-8-methoxyimidazo[1,2-a]pyrazin-6-yl)picolinamide] | 0.012 µM |
| CC12CC(c3cn4cc(NC(=O)c5cccc6c5OCC6)cc(OC(F)F)c4n3)(CO1)C2 [Example 421, N-(8-(difluoromethoxy)-2-(1-methyl-2-oxabicyclo[2.1.1]hexan-4-yl)imidazo[1,2-a]pyridin-6-yl)-2,3-dihydrobenzofuran-7-carboxamide 2,2,2-trifluoroacetate] | 0.018 µM |
| COc1nc2nc(C34CC(OC)(C3)C4)cn2cc1NC(=O)c1cccc(C(F)F)n1 [Example 565, 6-(difluoromethyl)-N-(7-methoxy-2-(3-methoxybicyclo[1.1.1]pentan-1-yl)imidazo[1,2-a]pyrimidin-6-yl)picolinamide] | 0.01 µM |
| CC(C)Oc1nc(NC(=O)c2cccc3ccnn23)cn2cc(C34COC(C)(C3)C4)nc12 [Example 336, N-(8-Isopropoxy-2-(1-methyl-2-oxabicyclo[2.1.1]hexan-4-yl)imidazo[1,2-a]pyrazin-6-yl)pyrazolo[1,5-a]pyridine-7-carboxamide] | 0.003 µM |
| COc1nc2nc(C3CC(OC)C3)cn2cc1NC(=O)c1cccc(C(F)F)n1 (centres unmarked) [Example 564, 6-(difluoromethyl)-N-(7-methoxy-2-(3-methoxycyclobutyl)imidazo[1,2-a]pyrimidin-6-yl)picolinamide] | 0.032 µM |
| CC(C)Oc1nc2nc(C3C4COCC43)cn2cc1NC(=O)c1ccn(C(C)C)n1 (centres unmarked) [Example 501, N-(2-(3-oxabicyclo[3.1.0]hexan-6-yl)-7-isopropoxyimidazo[1,2-a]pyrimidin-6-yl)-1-isopropyl-1H-pyrazole-3-carboxamide hydrochloride] | 0.002 µM |
| COc1nc2nc(C3CCCOC3)cn2cc1NC(=O)c1cccc(C(F)F)n1 (centres unmarked) [Example 569, 6-(difluoromethyl)-N-(7-methoxy-2-(tetrahydro-2H-pyran-3-yl)imidazo[1,2-a]pyrimidin-6-yl)picolinamide] | 0.004 µM |
| Cc1nc(C(=O)Nc2cn3cc(C4CCOCC4)nc3cc2OC(C)C)co1 [Example 386, N-(7-isopropoxy-2-(tetrahydro-2H-pyran-4-yl)imidazo[1,2-a]pyridin-6-yl)-2-methyloxazole-4-carboxamide] | 0.002 µM |
| COc1c(Cl)c(NC(=O)c2cccc(C(F)F)n2)cn2cc(C3CCOCC3)nc12 [Example 331, N-(7-chloro-8-methoxy-2-(tetrahydro-2H-pyran-4-yl)imidazo[1,2-a]pyridin-6-yl)-6-(difluoromethyl)picolinamide] | 0.031 µM |
| COc1nc(NC(=O)c2cccc(C(F)F)n2)cn2cc(C34CCC(CC3)OC4)nc12 [Example 561, N-(2-(2-oxabicyclo[2.2.2]octan-4-yl)-8-methoxyimidazo[1,2-a]pyrazin-6-yl)-6-(difluoromethyl)picolinamide] | 0.051 µM |
| CC(C)Oc1c(NC(=O)c2ccn(C)n2)cn2cc(C34COC(C)(C3)C4)nc2c1F [Example 432, N-(8-fluoro-7-isopropoxy-2-(1-methyl-2-oxabicyclo[2.1.1]hexan-4-yl)imidazo[1,2-a]pyridin-6-yl)-1-methyl-1H-pyrazole-3-carboxamide 2,2,2-trifluoroacetate] | 0.005 µM |

Results, then the molecule that gave them:

| IC50 | SMILES |
| --- | --- |
| 0.438 µM | CCOc1cc2nc(C(C)(C)O)c(Cl)n2cc1NC(=O)c1cccc(C(F)F)n1 [Example 354, N-(3-chloro-7-ethoxy-2-(2-hydroxypropan-2-yl)imidazo[1,2-a]pyridin-6-yl)-6-(difluoromethyl)picolinamide] |
| 0.199 µM | CC(C)Oc1nc2nc(C34COC(C)(C3)C4)c(Cl)n2cc1NC(=O)c1cccc(C(F)F)n1 [Example 576, N-(3-chloro-7-isopropoxy-2-(1-methyl-2-oxabicyclo[2.1.1]hexan-4-yl)imidazo[1,2-a]pyrimidine-6-yl)-6-(difluoromethyl)picolinamide 2,2,2-trifluoroacetate] |
| 0.063 µM | COc1nc(NC(=O)c2coc(C(F)F)n2)cn2cc(C34COC(C)(C3)C4)nc12 [Example 439, 2-(difluoromethyl)-N-(8-methoxy-2-(1-methyl-2-oxabicyclo[2.1.1]hexan-4-yl)imidazo[1,2-a]pyrazin-6-yl)oxazole-4-carboxamide] |
| 0.043 µM | O=C(Nc1cc(Cl)c2nc(C3CCOCC3)cn2c1)c1cccc(C(F)F)n1 [Example 308, N-(8-chloro-2-(tetrahydro-2H-pyran-4-yl)imidazo[1,2-a]pyridin-6-yl)-6-(difluoromethyl)picolinamide] |
| 0.025 µM | Cc1cc(NC(=O)c2cccc3ccnn23)cn2cc(C34COC(C)(C3)C4)nc12 [Example 408, N-(8-methyl-2-(1-methyl-2-oxabicyclo[2.1.1]hexan-4-yl)imidazo[1,2-a]pyridin-6-yl)pyrazolo[1,5-a]pyridine-7-carboxamide 2,2,2-trifluoroacetate] |
| 0.017 µM | COc1nc(NC(=O)c2cccc(C(F)F)n2)cn2cc(C34CC(C(F)F)(C3)C4)nc12 [Example 552, 6-(difluoromethyl)-N-(2-(3-(difluoromethyl)bicyclo[1.1.1]pentan-1-yl)-8-methoxyimidazo[1,2-a]pyrazin-6-yl)picolinamide 2,2,2-trifluoroacetate] |
| 0.015 µM | COc1cc(F)ccc1C(=O)Nc1cn2cc(C34COC(C)(C3)C4)nc2c(OC(C)C)n1 [Example 479, 4-fluoro-N-(8-isopropoxy-2-(1-methyl-2-oxabicyclo[2.1.1]hexan-4-yl)imidazo[1,2-a]pyrazin-6-yl)-2-methoxybenzamide 2,2,2-trifluoroacetate] |
| 0.008 µM | CCOc1cc2nc([C@@H]3C[C@@H]3F)cn2cc1NC(=O)c1cccc(C(F)F)n1 (relative stereo) [Example 519, Cis 6-(difluoromethyl)-N-(7-ethoxy-2-(2-fluorocyclopropyl)imidazo[1,2-a]pyridin-6-yl)picolinamide hydrochloride] |
| 0.004 µM | Cn1ccc(C(=O)Nc2cn3cc(C45COC(C)(C4)C5)nc3c(F)c2OC2CCCC2)n1 [Example 437, N-(7-(cyclopentyloxy)-8-fluoro-2-(1-methyl-2-oxabicyclo[2.1.1]hexan-4-yl)imidazo[1,2-a]pyridin-6-yl)-1-methyl-1H-pyrazole-3-carboxamide 2,2,2-trifluoroacetate] |
| 0.001 µM | CC12CC(c3cn4cc(NC(=O)c5cccc(C(F)F)n5)c(OC(F)F)cc4n3)(CO1)C2 [Example 395, N-(7-(difluoromethoxy)-2-(1-methyl-2-oxabicyclo[2.1.1]hexan-4-yl)imidazo[1,2-a]pyridin-6-yl)-6-(difluoromethyl)picolinamide 2,2,2-trifluoroacetate] |

Same assay, conditions: read-out: IRAK4 MSD BIOCHEMICAL (1 mM ATP) IC50, 100 pM IRAK4, 2 hours

| IC50 | SMILES |
| --- | --- |
| 0.004 µM | COc1nc(NC(=O)c2cccc(C(F)F)n2)cn2cc(C3CCCOC3)nc12 (single isomer, unassigned) [Example 298, 6-(difluoromethyl)-N-(8-methoxy-2-(tetrahydro-2H-pyran-3-yl)imidazo[1,2-a]pyrazin-6-yl)picolinamide] |
